Patent US7498343B2, “Mycobacterial inhibitors” (priority 2002, dated 2009)
Converted amounts (≈) assume the structure as drawn. Like-named read-outs stand apart in the source and are kept apart here.

Experiments:
[1] = tested on: Mycobacterium tuberculosis (strain H37RV); assay: In-vitro method for testing compounds against M. tuberculosis (resazurin growth inhibition, MIC); format: cell-based; conditions: MIC data representing IC90's, 7 days incubation, resazurin fluorescence
M. Smegmatis ATCC607 = assay: In-vitro method for testing compounds for anti-bacterial activity against strain M. smegmatis ATCC607 (Alamar Blue growth inhibition); format: cell-based; conditions: M. smegmatis ATCC607, pIC50 = -logIC50, IC50 in M, 50% inhibitory concentration for bacterial growth, 48 hours incubation
Description: C.2. In-vitro Method for Testing Compounds for Anti-bacterial Activity Against Strain M. Smegmatis ATCC607. […] Subsequently, stock solutions (7.8×final test concentration) of compounds were added in 45 μl volumes to a series of duplicate wells in column 2 so as to allow evaluation of their effects on bacterial growth. Serial five-fold dilutions (45 μl in 180 μl) were made directly in the microtiter plates from column 2 to 11 using a customised robot system (Zymark Corp., Hopkinton, Mass.). Pipette tips were changed after every 3 dilutions to minimize pipetting errors with high hydrophobic compounds. Untreated control samples with (column 1) and without (column 12) inoculum were included in each microtiter plate. Approximately 250 CFU per well of bacteria inoculum, in a volume of 100 μl in 2.8×Mueller-Hinton broth medium, was added to the rows […]. The same volume of broth medium without inoculum was added to column 12 in row A to H. The cultures were incubated at 37° C. for 48 hours in a humidified 5% CO2 atmosphere (incubator with open air valve and continuous ventilation). At the end of incubation, two days after inoculation, the bacterial growth was quantitated fluorometrically. Therefore Alamar Blue (10×) was added to all wells in a volume of 20 μl and plates were incubated for another 2 hours at […] The fluorescence was read in a computer-controlled fluorometer (Cytofluor, Biosearch) at an excitation wavelength of 530 nm and an emission wavelength of 590 nm (gain 30). The % growth inhibition achieved by the compounds was calculated according to standard methods.

Row | Structure (SMILES) | MIC [1] | pIC50 (M. Smegmatis ATCC607) | MIC ([1]; Mycobacterium tuberculosis, H37RV, 168 h, read-out: MIC) | IC50 (M. Smegmatis ATCC607; Mycolicibacterium smegmatis, ATCC607, 48 h, read-out: pIC50 (converted))
1 | COc1nc2ccc(Br)cc2cc1C(c1ccccc1)C(O)(CCn1ccnc1)c1ccccc1 (centres unmarked) [Compound 50] | 52.85 microgram/ml | 5.0 |  | 
2 | COc1nc2cc(C)c(Br)cc2cc1C(c1ccccc1)C(O)(CCN(C)C)c1cccc(F)c1 (single isomer, unassigned) [Compound 215] | 8.52 microgram/ml | 6.2 |  | 
3 | COc1nc2ccc(Br)cc2cc1C(c1ccccc1)C(O)(CCn1cncn1)c1cccc2ccccc12 (centres unmarked) [Compound 172] |  |  | 7.3 µg/mL (≈ 12.6 µM) | 2000 nM
4 | COc1ccc2nc(OC)c(C(c3ccccc3)C(O)(CCN(C)C)c3cccc4ccccc34)cc2c1 (single isomer, unassigned) [Compound 98] | 0.51 microgram/ml | 7.9 |  | 
5 | COc1nc2ccc(Br)cc2cc1C(c1ccccc1)C(O)(CCN(C)C)c1cccc2c1CCCC2 (single isomer, unassigned) [Compound 131] | 44.45 microgram/ml | 6.9 |  | 
6 | COc1nc2ccc(Br)cc2cc1C(c1ccccc1)C(O)(CCN1CCOCC1)c1ccc2cc(Br)ccc2c1 (single isomer, unassigned) [Compound 178] | 67.65 microgram/ml | 4.5 |  | 
7 | COc1nc2ccc(Br)cc2cc1C(c1ccccc1)C(O)(CCN(C)C)c1cccc(F)c1 (centres unmarked) [Compound 38] | 8.30 microgram/ml | 7.9 |  | 
8 | COc1nc2ccc(Br)cc2cc1C(c1ccc(Cl)cc1)C(O)(CCN(C)C)c1ccccc1 (single isomer, unassigned) [Compound 37] | 0.34 microgram/ml | 7.9 |  | 
9 | COc1nc2ccc(Br)cc2cc1C(c1ccc(Cl)cc1)C(O)(CCN(C)C)c1cccc2ccccc12 (racemic) [Compound 74] | 59.00 microgram/ml | 6.5 |  | 
10 | COc1nc2ccc(Br)cc2cc1C(c1ccccc1)C(O)(CCN(C)C)c1ccc(Cl)cc1 (single isomer, unassigned) [Compound 16] | 0.34 microgram/ml | 6.8 |  | 
11 | COc1nc2ccc(-c3ccc(CO)o3)cc2cc1C(c1ccccc1)C(O)(CCN(C)C)c1cccc2ccccc12 (single isomer, unassigned) [Compound 212] | 9.08 microgram/ml | 6.0 |  | 
12 | COc1nc2ccc(Br)cc2cc1C(c1ccccc1)C(O)(CCN(C)C)c1ccc(F)cc1 (single isomer, unassigned) [Compound 181] | 8.30 microgram/ml | 6.9 |  | 
13 | COc1nc2ccc(Br)cc2cc1C(c1ccccc1)C(O)(CCN(C)C)c1ccc(F)c(F)c1 (racemic) [Compound 196] | 1.71 microgram/ml | 6.6 |  | 
14 | COc1nc2ccc(Br)cc2cc1C(c1ccccc1)C(O)(CC[N+](C)(C)[O-])c1ccccc1 (racemic) [Compound 58] | 16.49 microgram/ml | 6.8 |  | 
15 | COc1nc2ccc(Br)cc2cc1C(c1ccccc1)C(O)(CCN(C)C)c1cccc2ccccc12 (centres unmarked) [Compound 15] | 2.78 microgram/ml | 6.5 |  | 
16 | COc1nc2ccc(-c3cc4ccccc4s3)cc2cc1C(c1ccccc1)C(O)(CCN(C)C)c1cccc(F)c1 (single isomer, unassigned) [Compound 203] | 1.15 microgram/ml | 8.0 |  | 
17 | COc1nc2ccc(Br)cc2cc1C(c1ccccc1)C(O)(CCCN(C)C)c1cccc2ccccc12 (single isomer, unassigned) [Compound 186] | 56.96 microgram/ml | 4.5 |  | 
18 | COc1nc2ccc(Br)cc2cc1C(c1ccccc1)C(O)(CCN(C)C)c1ccccc1F (racemic) [Compound 69] | 0.13 microgram/ml | 8.5 |  | 
19 | COc1nc2ccc(Br)cc2cc1C(c1ccccc1)C(O)(CCN(C)C)c1ccsc1 (single isomer, unassigned) [Compound 24] | 1.62 microgram/ml | 7.2 |  | 
20 | COc1nc2ccc(Br)cc2cc1C(c1ccccc1)C(O)(CCN(C)C)c1cccc(F)c1 (centres unmarked) [Compound 39] | 8.30 microgram/ml | 6.1 |  | 
21 | COc1nc2ccc(Br)cc2cc1C(c1ccccc1)C(O)(CCN(C)C)c1ccc(F)c(F)c1 (racemic) [Compound 195] | 6.82 microgram/ml | 6.5 |  | 
22 | COc1nc2ccc(Br)cc2cc1C(c1ccccc1)C(O)(CCN(C)C)c1cc(Br)cc2ccccc12 (single isomer, unassigned) [Compound 143] | 50.39 microgram/ml | 6.9 |  | 

Row | Structure (SMILES) | MIC [1] | pIC50 (M. Smegmatis ATCC607) | MIC ([1]; Mycobacterium tuberculosis, H37RV, 168 h, read-out: MIC) | IC50 (M. Smegmatis ATCC607; Mycolicibacterium smegmatis, ATCC607, 48 h, read-out: pIC50 (converted))
23 | COc1nc2ccccc2cc1C(c1ccccc1)C(O)(CCN(C)C)c1cccc(F)c1 (racemic) [Compound 94] | 1.77 microgram/ml | 7.9 |  | 
24 | COc1nc2ccc(Br)cc2cc1C(c1ccccc1)C(O)(CCN(C)C)c1ccccc1F (racemic) [Compound 70] | 52.35 microgram/ml | 5.8 |  | 
25 | COc1nc2ccc(C)cc2cc1C(c1ccccc1)C(O)(CCN(C)C)c1ccccc1 (single isomer, unassigned) [Compound 23] | 8.79 microgram/ml | 6.4 |  | 
26 | COc1ccc2cc(C(O)(CCN(C)C)C(c3ccccc3)c3cc4cc(Br)ccc4nc3OC)ccc2c1 (single isomer, unassigned) [Compound 162] | 9.28 microgram/ml | 7.0 |  | 
27 | COc1nc2ccc(Br)cc2cc1C(c1ccccc1)C(O)(CCN(C)C)c1ccc(C#N)cc1 (racemic) [Compound 80] | 2.11 microgram/ml | 7.1 |  | 
28 | COc1nc2ccc(Br)cc2cc1C(c1ccccc1)C(O)(CCN(C)C)c1ccc2c(c1)OCO2 (racemic) [Compound 76] | 1.74 microgram/ml | 5.9 |  | 
29 | COc1nc2ccc(Br)cc2cc1C(c1ccccc1)C(O)(CCN(C)C)c1ccc2c(Br)cccc2c1 (single isomer, unassigned) [Compound 130] | 50.32 microgram/ml | 5.3 |  | 
30 | COc1nc2ccc(Br)cc2cc1C(c1ccccc1)C(O)(CCn1ccnc1)c1cccc2ccccc12 (single isomer, unassigned) [Compound 173] | 57.85 microgram/ml | 4.7 |  | 
31 | COc1nc2ccc(Br)cc2cc1C(c1ccccc1)C(O)(CCCN1CCCC1)c1ccc2ccccc2c1 (single isomer, unassigned) [Compound 133] | 59.56 microgram/ml | 5.1 |  | 
32 | COc1nc2ccc(Br)cc2cc1C(c1ccccc1)C(O)(CCN(C)C)c1ccc(C#N)cc1 (racemic) [Compound 81] | 42.14 microgram/ml | 5.4 |  | 
33 | COc1nc2ccc(Br)cc2cc1C(c1ccccc1)C(O)(CCCCN(C)C)c1ccc2ccccc2c1 (single isomer, unassigned) [Compound 191] | 1.85 microgram/ml | 6.5 |  | 
34 | COc1nc2ccc(Br)cc2cc1C(c1ccccc1)C(O)(CCCN(C)C)c1ccc2ccccc2c1 (single isomer, unassigned) [Compound 126] | 56.96 microgram/ml | 5.2 |  | 
35 | COc1nc2ccc(Br)cc2cc1C(c1ccccc1)C(O)(CCN1CCN(c2ncccn2)CC1)c1ccc2ccccc2c1 (single isomer, unassigned) [Compound 200] | 67.47 microgram/ml | 4.9 |  | 
36 | COc1nc2ccc(Br)cc2cc1C(c1ccccc1)C(O)(CCN1CCOCC1)c1ccc2ccccc2c1 (single isomer, unassigned) [Compound 140] | 59.76 microgram/ml | 5.8 |  | 
37 | COc1ccc2nc(OC)c(C(c3ccccc3)C(O)(CCN(C)C)c3cccc(F)c3)cc2c1 (single isomer, unassigned) [Compound 134] | 7.52 microgram/ml | 6.5 |  | 
38 | COc1nc2ccc(C)cc2cc1C(c1ccccc1)C(O)(CCN(C)C)c1cccc2ccccc12 (racemic) [Compound 83] | 7.78 microgram/ml | 5.8 |  | 
39 | CCN(C)CCC(O)(c1cccc2ccccc12)C(c1ccccc1)c1cc2cc(Br)ccc2nc1OC (centres unmarked) [Compound 148] | 56.96 microgram/ml | 4.9 |  | 
40 | COc1nc2ccc(Br)cc2cc1C(c1ccccc1)C(O)(CC[N+](C)(C)C)c1cccc2ccccc12.[I-] (single isomer, unassigned) [Compound 121] | 2.21 microgram/ml | 5.9 |  | 
41 | COc1nc2ccc(C)cc2cc1C(c1ccccc1)C(O)(CCN(C)C)c1cccc2ccccc12 (racemic) [Compound 82] | 3.90 microgram/ml | 7.1 |  | 
42 | COc1nc2ccc(Br)cc2cc1C(c1ccccc1)C(O)(CCc1ccccc1)CCN(C)C (single isomer, unassigned) [Compound 96] | 21.24 microgram/ml | 6.2 |  | 
43 | COc1nc2ccc(Br)cc2cc1C(c1ccccc1)C(O)(CCN(C)C)c1ccc2ccccc2c1 (racemic) [Compound 46] | 1.76 microgram/ml | 6.4 |  | 
